Counter-ions that a name gives are not always drawn.
Legend:
[1] = target: T1, MMP-9 (Homo sapiens, UniProt P14780); experiment: In vitro MMP inhibition, IC50 determination (fluorogenic substrate I); type: biochemical; conditions: values in parenthesis; 4 μM substrate I; room temperature
T1 construct: made in house; host or cells: MMP-9-transfected HT1080 cells (spent media)
Experimental: Several hydroxamic acids and salts thereof were analyzed in in vitro assays to determine their ability to inhibit the MMP cleavage of peptide substrates. […] and IC50 constants were calculated from the assayed hydroxamic acid-MMP interactions. Human recombinant MMP-1, MMP-2, MMP-9, MMP-13, and MMP-14 were used in this assay. All enzymes were prepared in Assignee's laboratories following usual laboratory procedures. Protocols for the preparation and use of these enzymes are available in the scientific literature. See, e.g., Enzyme Nomenclature (Academic Press, San Diego, Calif., 1992) (and the citations therein). See also, Freije et al., “Molecular cloning and expression of collagenase-3, a novel human matrix metalloproteinase produced by breast carcinomas,” J Biol. Chem., 269(24), 16766-16773 (1994). The MMP-9 proenzyme was purified by gelatin Sepharose chromatography from spent media of MMP-9-transfected HT1080 cells provided by Dr. Howard Welgus of Washington University (St. Louis, Mo.). All MMPs were activated using 4-aminophenylmercuric acetate (“APMA”, Sigma Chemical, St. Louis, Mo.) or trypsin. MMP-9 also was activated using human recombinant MMP-3 (purified in Assignee's laboratory following standard cloning and purification techniques). […] Substrate (I) was purchased from Baychem (Redwood City, Calif.), and substrate II was prepared Assignee's laboratory. Substrate I was used in the IC50 determination assays, while substrate II was used in the Ki determination assays. In the absence of MMP inhibitory activity, either substrate is cleaved at the Gly-Leu peptide bond. […] The stock solutions of the assayed hydroxamic acids (or salts thereof) were prepared in 1% dimethyl sulfoxide (DMSO). […] The experiment controls contained the same amount of Buffer A/DMSO as the assayed sample, but contained no hydroxamic acid (or salt thereof). The assays from which the IC50 determinations were made were performed as follows. […] Louis, Mo.). The assayed hydroxamic acid samples were incubated in MicrofluorTM White Plates (Dynatech, Chantilly, Va.) and analyzed on a Perkin Elmer […] plate reader (Norwalk, Conn.). The excitation wavelength was 328 nm, and the emission wavelength-415 nm. […] As stated in the previous paragraph, samples containing varying concentrations of the same assayed hydroxamic acid were prepared. Inhibition was measured as a reduction in fluorescent intensity as a function of MMP inhibitor concentration. […] All values in Table 2 are given in nM units. The IC50 measurements are in parenthesis.

[2] = target: T2, MMP-1 (Homo sapiens, UniProt P03956); experiment: as above; type: biochemical; conditions: values in parenthesis; 4 μM substrate I; room temperature
T2 construct: made in house; host or cells: MMP-1-transfected HT-1080 cells (spent media)
T2 sequence (P03956 100-469): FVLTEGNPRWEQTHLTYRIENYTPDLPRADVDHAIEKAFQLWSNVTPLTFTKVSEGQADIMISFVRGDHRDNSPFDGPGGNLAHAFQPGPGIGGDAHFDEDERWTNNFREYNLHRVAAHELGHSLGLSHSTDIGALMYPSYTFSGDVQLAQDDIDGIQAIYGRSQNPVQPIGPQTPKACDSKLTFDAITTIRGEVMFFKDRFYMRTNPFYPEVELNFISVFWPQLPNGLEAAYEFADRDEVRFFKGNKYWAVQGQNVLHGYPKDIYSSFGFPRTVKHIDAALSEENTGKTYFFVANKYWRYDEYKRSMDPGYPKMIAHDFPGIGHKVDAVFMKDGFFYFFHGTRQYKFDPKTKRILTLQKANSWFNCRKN
Experimental: Several hydroxamic acids and salts thereof were analyzed in in vitro assays to determine their ability to inhibit the MMP cleavage of peptide substrates. […] and IC50 constants were calculated from the assayed hydroxamic acid-MMP interactions. Human recombinant MMP-1, MMP-2, MMP-9, MMP-13, and MMP-14 were used in this assay. All enzymes were prepared in Assignee's laboratories following usual laboratory procedures. Protocols for the preparation and use of these enzymes are available in the scientific literature. See, e.g., Enzyme Nomenclature (Academic Press, San Diego, Calif., 1992) (and the citations therein). See also, Freije et al., “Molecular cloning and expression of collagenase-3, a novel human matrix metalloproteinase produced by breast carcinomas,” J Biol. Chem., 269(24), 16766-16773 (1994). The MMP-1 proenzyme was purified from the spent media of MMP-1-transfected HT-1080 cells provided by Dr. Harold Welgus of Washington University (St. Louis, Mo.). The protein was purified on a zinc chelating column. All MMPs were activated using 4-aminophenylmercuric acetate (“APMA”, Sigma Chemical, St. Louis, Mo.) or trypsin. MMP-9 also was activated using human recombinant MMP-3 (purified in Assignee's laboratory following standard cloning and purification techniques). […] Substrate (I) was purchased from Baychem (Redwood City, Calif.), and substrate II was prepared Assignee's laboratory. Substrate I was used in the IC50 determination assays, while substrate II was used in the Ki determination assays. In the absence of MMP inhibitory activity, either substrate is cleaved at the Gly-Leu peptide bond. […] The stock solutions of the assayed hydroxamic acids (or salts thereof) were prepared in 1% dimethyl sulfoxide (DMSO). […] The experiment controls contained the same amount of Buffer A/DMSO as the assayed sample, but contained no hydroxamic acid (or salt thereof). The assays from which the IC50 determinations were made were performed as follows. […] Louis, Mo.). The assayed hydroxamic acid samples were incubated in MicrofluorTM White Plates (Dynatech, Chantilly, Va.) and analyzed on a Perkin Elmer […] plate reader (Norwalk, Conn.). The excitation wavelength was 328 nm, and the emission wavelength-415 nm. […] As stated in the previous paragraph, samples containing varying concentrations of the same assayed hydroxamic acid were prepared. Inhibition was measured as a reduction in fluorescent intensity as a function of MMP inhibitor concentration. […] All values in Table 2 are given in nM units. The IC50 measurements are in parenthesis.

T1 sequence (P14780 107-707 limits assumed): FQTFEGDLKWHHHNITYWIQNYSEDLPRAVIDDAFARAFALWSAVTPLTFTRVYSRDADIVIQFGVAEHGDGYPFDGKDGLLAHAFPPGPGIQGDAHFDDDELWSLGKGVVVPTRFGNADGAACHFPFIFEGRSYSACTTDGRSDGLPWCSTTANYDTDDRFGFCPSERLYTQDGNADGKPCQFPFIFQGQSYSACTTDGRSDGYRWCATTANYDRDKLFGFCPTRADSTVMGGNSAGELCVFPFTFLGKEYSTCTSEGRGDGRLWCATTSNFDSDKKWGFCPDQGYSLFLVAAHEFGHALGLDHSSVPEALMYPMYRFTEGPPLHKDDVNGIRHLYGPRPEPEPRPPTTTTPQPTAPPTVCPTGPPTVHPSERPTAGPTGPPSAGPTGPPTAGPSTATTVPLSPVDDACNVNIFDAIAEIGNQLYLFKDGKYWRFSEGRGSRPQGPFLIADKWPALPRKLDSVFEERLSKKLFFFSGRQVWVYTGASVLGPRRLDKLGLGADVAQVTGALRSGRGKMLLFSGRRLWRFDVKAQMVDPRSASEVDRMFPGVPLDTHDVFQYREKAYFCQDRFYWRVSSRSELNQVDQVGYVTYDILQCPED

Row | IC50 [1] [nM] | IC50 [2] [nM] | SMILES
1 | 0.3 | > 10000 | CCCCCc1ccc(C2CCN(S(=O)(=O)C3(C(=O)NO)CCN(CCOC)CC3)CC2)cc1 [Example 15, N-hydroxy-1-(2-methoxyethyl)-4-{[4-(4-pentylpheyl)piperidin-1-yl]sulfonyl}piperidine-4-carboxamide Hydrochloride]
2 | < 0.1 | > 10000 | CCCCc1ccc(N2CCN(S(=O)(=O)C3(C(=O)NO)CCN(CCOC)CC3)CC2)cc1 [Example 5, 4-{[4-(4-butylphenyl)piperazin-1-yl]sulfonyl}-N-hydroxy-1-(2-methoxyethyl)piperidine-4-carboxamide Dihydrochloride]
3 | 0.3 | > 10000 | O=C(NO)C1(S(=O)(=O)N2CCN(c3ccc(OCC4CC4)c(F)c3)CC2)CCN(C2CC2)CC1 [Example 10, 1-cyclopropyl-4-[[4-[4-(cyclopropylmethoxy)-3-fluorophenyl]-1-piperazinyl]sulfonyl]-N-hydroxy-4-piperidinecarboxamide, dihydrochloride]
4 | 0.2 | > 10000 | CCCCCc1ccc(N2CCN(S(=O)(=O)C3(C(=O)NO)CCN(CCOC)CC3)CC2)cc1 [Example 6, N-Hydroxy-1-(2-methoxyethyl)-4-{[4-(4-pentylphenyl)piperazin-1-yl]sulfonyl}piperidine-4-carboxamide Dihydrochloride]

Row | SMILES | IC50 [1] [nM] | IC50 [2] [nM]
5 | CCCCOc1ccc(N2CCN(S(=O)(=O)C3(C(=O)NO)CCN(CCOC)CC3)CC2)cc1F [Example 11, 4-[[4-(4-butoxy-3-fluorophenyl)-1-piperazinyl]sulfonyl]-N-hydroxy-1-(2-methoxyethyl)-4-piperidinecarboxamide, Dihydrochloride] | 2.3 | > 10000

— patent US20050209278A1, “Piperidinyl- and piperazinyl-sulfonylmethyl hydroxamic acids and their use as protease inhibitors” (priority 2002, published 2005)
